The source of these data is US10226470B2, “DGAT1 inhibition for treatment of demyelinating inflammatory disease” (The Board of Trustees of the Leland Stanford Junior …, priority 2014, dated 2019).

Data set [1] concerns C57BL/6 mice. The data set can be described thus: Tolerability observations in treated mice (behavior, leukocytes, organ wet weights and gross morphology). Format: in vivo, mouse. The settings on record: mice induced to develop EAE, treated from day 12 p.i. From the text:
To address this possibility, we first determined whether pharmacological inhibition of DGAT1 could modulate clinical EAE. […] Suppression of clinical disease was evident as early as 2 days after dosing began and persisted until termination of the experiment at day 30 p.i. (FIG. 3a). Overall, the compound delayed onset of clinical signs by an average of 6 days and reduced disease incidence at day 30 p.i. by 30%. […] Thus, administration of a selective DGAT1 inhibitor attenuates EAE.

Data set [2] has as its system C57BL/6 mice with MOG35-55-induced EAE. The experiment in a line: EAE induced by active immunization with MOG35-55/CFA, clinical scoring and CNS histology. Format: in vivo, mouse. Here is the method: In addition, administration of a selective DGAT1 inhibitor attenuated MOG35-55-induced EAE. C57BL/6 mice (8 weeks old) were induced to develop EAE by active immunization with MOG35-55/CFA. Twelve days after disease induction (indicated by the arrow), mice were administered vehicle (10% Captisol) or 10 mg/kg DGAT1 inhibitor A922500 once daily via s.c. injection and followed for clinical disease (n=10/group). Clinical data are presented as the mean score ±SEM. The scoring system is as follows: 0, normal or healthy; 1, limp tail; 2, hindlimb weakness; 3, hindlimb paralysis; 4, hindlimb and forelimb paralysis. *P<0.05 (days 14-30) by Mann-Whitney U test.
EAE models. For EAE induction by active immunization, mice (8-10 weeks old) were immunized via subcutaneous (s.c.) injection with 100 μg MOG35-55 emulsified in CFA as described. Mice also received 250 ng pertussis toxin (List Biological Labs) via tail vein injection at the time of MOG35-55/CFA immunization and again 2 days later. Clinical disease was scored as follows: 0=normal or healthy; 1=flaccid tail; 2=hindlimb weakness; 3=hindlimb paralysis; 4=hindlimb and forelimb paralysis; 5=moribund or dead. Where indicated, A922500 was formulated in 10% Captisol vehicle for in vivo dosing via s.c. injection (100 μl volume). Individuals who conducted the clinical scoring were blinded to the treatment that the mice received.
Histology. Brain and spinal cord tissues were fixed in 10% buffered formalin. Paraffin-embedded tissues were then stained with H&E, and CNS inflammatory foci (>10 mononuclear cells/focus) in leptomeninges and parenchyma were counted in each mouse sample in a blinded fashion.
Statistics. The Mann-Whitney U test was applied to analyze nonparametric clinical EAE data, and the Student's t test was used to analyze all parametric data. The Fisher's exact test was used to compare disease incidence.

The test system of data set [3] is WT CD4+CD25− cells. The experiment in a line: In vitro T regulatory cell induction, WT T cells. It counts as cell-based, mouse. How it is done:
(§1) FIG. 7. DGAT1 limits retinoic acid-dependent Treg induction. WT or DGAT1 KO CD4+CD25− cells were incubated with T cell-depleted DGAT1 KO MLN cells in delipidated serum in the absence or presence of: soluble anti-CD3; TGFβ; retinol (ROL; 10 nM); A922500 (100 nM); or AM580 (10 nM) where indicated. After 3 days, TCRβ+ lymphocytes in the live gate were analyzed for expression of CD4 and Foxp3 by flow cytometry. (a) Representative FACS plots show the frequency of WT (top panels) or DGAT1 KO (bottom panels) CD4+Foxp3+ Tregs within the gate. (b) FACS data are summarized in bar graph form. Bars depict the mean+SEM of triplicate wells. Two independent experiments were performed.
(§2) This acyl-CoA:retinol acyltransferase (ARAT) function enables DGAT1 to convert retinol (vitamin A) to its storage retinyl ester form. RA, the active metabolite of vitamin A, supports Treg induction; however, T lymphocytes cannot synthesize RA autonomously. We hypothesized that T cell-expressed DGAT1 functions as an ARAT, diverting retinol to its storage ester form. This would lead to a reduction in levels of RA locally. Conversely, DGAT1 deficiency would prevent this sequestration of retinol, leading to elevated RA and Treg induction. […]

The conditions of data set [4]: daily 10 mg/kg; models of obesity; cited from earlier work.
In data set [5] the test system is DGAT1 KO CD4+CD25− cells. The data set can be described thus: In vitro T regulatory cell induction, DGAT1 KO T cells. It counts as cell-based, mouse. The settings on record: retinol 10 nM; anti-CD3/TGFβ, DGAT1 KO MLN cells, delipidated serum, 3 days. Here is the method: as §1, §2
The mark [6] stands for this setting: 30 days after EAE induction, mean (SEM), 10 mg/kg s.c. once daily from day 12.

On to `O=C(Nc1ccccc1)Nc1ccc(-c2ccc(C(=O)[C@@H]3CCC[C@H]3C(=O)O)cc2)cc1` [A922500], for which, in data set [1], the “Leukocyte numbers or composition within peripheral lymphoid tissues” value is “did not induce overt behavioral changes or significantly alter leukocyte numbers or composition within peripheral lymphoid tissues”; the “Organ toxicity (wet weights and gross morphology of several organs incl. spleen and thymus)” value is reported as “did not cause detectable organ toxicity”; the Overt behavioral changes result is “did not induce overt behavioral changes”. In data set [2] (10 mg/kg daily from day 12 p.i., persisted until day 30 p.i.), the “Time after start of dosing at which suppression of clinical disease was evident” value was found to be 2 days. In addition, the “Mean maximal score (SEM)” value in data set [2] (10 mg/kg s.c. once daily from day 12 p.i., clinical score 0-5) was 1.4 (0.4)^ns. In addition, the “Mean day of onset (SEM)” value in data set [2] (10 mg/kg s.c. once daily from day 12 p.i., only animals that developed EAE) is on record as 20.1 (1.9)* day. In addition, in data set [2] (setting [6]), the “No. of CNS inflammatory foci, Meninges” value was 19.8 (8.8) and the “No. of CNS inflammatory foci, Parenchyma” value was 29.9 (12.4). Further, the “Delay of onset of clinical signs” value in data set [2] (average, versus vehicle, 10 mg/kg daily from day 12 p.i.) came to 6 days. Besides, the “Effect on clinical EAE” value in data set [2] (daily 10 mg/kg, P<0.05 days 14-30 p.i. by Mann-Whitney U test) is on record as “attenuated EAE”. Further, in data set [2] (versus vehicle, 10 mg/kg daily from day 12 p.i.), the “Reduction of disease incidence at day 30 p.i.” value was determined as 30%. Also, the “Difference between DGAT1−/− and WT Treg induction responses to retinol” value in data set [3] (A922500 100 nM with retinol 10 nM, anti-CD3/TGFβ, 3 days) was “abrogated the difference between DGAT1−/− and WT cell responses”. Besides, the “Serum TG levels” value in data set [4] is given as “significantly reduces serum TG levels”.

On to `CC1(C)CCC(C)(C)c2cc(C(=O)Nc3ccc(C(=O)O)cc3)ccc21` [AM580], for which, in data set [3] (AM580 10 nM, WT and DGAT1 KO cells, DGAT1 deficiency had no significant effect), the “Treg induction by RAR agonist” value is recorded as “enhanced Treg induction”.

Consider `CC1=C(/C=C/C(C)=C/C=C/C(C)=C/CO)C(C)(C)CCC1` [retinol, All-trans-retinol], for which the “Foxp3+ Treg induction” value in data set [5] is recorded as “significantly enhanced”.
